Literature values, collected in patent US20180353540A1, “Pharmaceutical composition for treating leukemia and preparation method thereof” (Yi Fan Pharmaceutical Academy (Beijing) Co., Ltd., priority 2015, published 2018).

Tests used:
ME180 cells = details: non-toxic dose 0.5 μg/ml
HL-6 cells = details: non-toxic dose 0.5 μg/ml
[1] = system: SGC7901 human gastric adenocarcinoma cells

Structure (SMILES) | induced differentiation effect on ME180 cells (ME180 cells) | effect on HL-6 cells (differentiation, maturation, apoptosis) (HL-6 cells) | expression of c-myc and H-ras oncogenes (RNA dot blot hybridization) (ME180 cells; ME180 cell line) | growth of SGC7901 human gastric adenocarcinoma cells in vitro [1]
CC1=C(/C=C/C(C)=C/C=C/C(C)=C/C(=O)O)C(C)(C)CCC1 [ATRA, all-trans retinoic acid] | better induced differentiation effects |  |  | 
Cc1coc2c1C(=O)C(=O)c1c-2ccc2c1CCCC2(C)C [tanshinone IIA] | better induced differentiation effects | can induce differentiation and maturation of tumor cells, accompanied by apoptosis | significantly reduced | significantly inhibits the growth
